Measured values: patent US20220347299A1, “FLUORESCENT SYSTEMS FOR BIOLOGICAL IMAGING AND USES THEREOF” (LIGHTOX LIMITED, priority 2019, published 2022)

Legend:
Bacillus subtilis = assay: Baclight staining (propidium iodide / Syto 9), widefield imaging, B. subtilis; assay type: cell-based; details: 1 μM, 405 nm, 5 min
Description: Samples prepared according to Table 9 were treated with compounds by diluting 10 mM of stock solution in media to make a 100 μM concentration. This solution was then further diluted 1:10 and 1:100 in media to make 10 μM and 1 μM media solutions containing the compound. 50 μl of cell culture were then added to the 100 μM, 10 μM and 1 μM compound-containing media preparations. Following the treatment outlined in Table 9, each of the three bacterial strains were stained using a Baclight™ staining kit containing separate solutions of Syto™ 9 and Propidium Iodide. One extra sample treated with 0.1 μM of each compound was also included in this assay. M. smegmatis, S. epidermis and B. subtilis were stained with propidium iodide to show non-viable cells and with Syto 9 to show all cells. The following staining procedure was used: • 1. 1 ml of each sample was eluted into a well of a 12-well plate; • 2. One half of the 12 well plate was irradiated at approximately 15 mW/cm^2 for 5 mins; • 3. The content of each well was eluted into separate Eppendorfs and centrifuged at 10,000 r.p.m for 3 rains to form a culture pellet; • 4. Media was then removed, and each pellet resuspended in 200 μl of 1× PBS before being centrifuged at 10,000 r.p.m. for 3 mins. • 5. A preparation of Baclight™-staining solution was made using 1 ml 1× PBS, 3 μl propidium iodide and 3 μl Syto™ 9; • 6. […]

Mycobacterium smegmatis = assay: Overnight growth curve (OD 600 nm) cytotoxicity assay, M. smegmatis; assay type: cell-based
Description: A sample of M. smegmatis was taken from a plate culture and inoculated into Middlebrook 7H9 broth containing an added Middlebrook ADC growth supplement to culture overnight at 37° C. for approximately 16 hours.
Samples were incubated in darkness at room temperature for approximately 2 hrs. A black clear bottom Costar™-96 well plate was then filled, with 200 μl of sample in each well Cells were irradiated for 5 minutes at approximately 15 mW/cm^2. The cytotoxicity of the compounds without irradiation was also assessed.
The 96 well plate was put into the plate reader and set up to run a growth curve protocol using the following parameters: • Incubation temperature: 37° C. • OD read wavelength 600 nm • 250 cycles, readings every 5 rains • Shaking for 5 s pre-reading
This was left to run overnight to obtain kinetic growth curves based on optical density readings.

COC(=O)/C=C/c1ccc(C#Cc2ccc(N(C)CCN)cc2)cc1 [Compound 12, methyl (2E)-3-[4-(2-{4-[(2-aminoethyl)(methyl)amino]phenyl}ethynyl)phenyl]prop-2-enoate]
proportion of non-viable (red) cells following irradiation compared to non-irradiated sample (Bacillus subtilis): the proportion of non-viable (red) cells is increased | growth of M. smegmatis, radiated samples (Mycobacterium smegmatis; 100 μM, 405 nm, 5 min, approximately 15 mW/cm^2): begin to indicate some cytotoxicity | growth of M. smegmatis, no photoactivation (Mycobacterium smegmatis; 1-100 μM, not irradiated): no significant difference between the treated and untreated controls
